Measured values as given in patent US9803002B2, “Anti-wall teichoic antibodies and conjugates” (Genentech, Inc., priority 2013, dated 2017).

Test system: Wood46 strain of S. aureus
Assay: Macrophage intracellular killing assay with opsonized, washed bacteria
Format: cell-based, Staphylococcus aureus
Settings: 10 μg/mL or 0.5 μg/mL
Procedure: The Wood46 strain of S. aureus was incubated with 10 μg/mL or 0.5 μg/mL of S4497 antibody, Isotype control-AAC containing a cathepsin B cleavable linker, thio-trastuzumab HC A118C-MC-vc-PAB-(dimethyl-pipBOR) AAC-101, thio-S4497 HC WT (v8), LC V205C-MC-vc-PAB-(dimethylpipBOR) AAC-192, Isotype control-AAC containing a staphopain cleavable linker, thio-trastuzumab HC […]-MP-LAFG-PABC-(piperazinoBOR) (“core peptide” disclosed as SEQ ID NO: 128) or thio-S4497 HC v1-MP-LAFG-PABC-(piperazinoBOR) (“core peptide” disclosed as SEQ ID NO: 128) AAC-193 for 1 hour to permit binding of the AAC to bacteria (FIG. 32). To limit non-specific binding of the AAC, the opsonized bacteria were centrifuged, washed once and resuspended in buffer before being fed to murine macrophages. […] Antibody-antibiotic conjugate, thio-54497 LC v8-MP-LAFG-PABC-(piperazinoBOR) (“core peptide” disclosed as SEQ ID NO: 128)AAC-215 is efficacious in vivo in a MRSA infection model: […]

Substance: thio-trastuzumab HC A1118C-MP-LAFG-PABC-(piperazinoBOR)
- killing of intracellular bacteria: no activity
